Reference: patent publication US9968626B2, “Method for treating obesity” (Rhamnopharma Inc., priority 2011, dated 2018)

Test: Body weight of allergic-rhinitis-sensitized Balb/C mice after intranasal rhamnolipid doses (Example 1)
Assay type: in vivo
Details: 0.5% solution in saline, 5 μl per nostril at two time points on Day 37 (total 20 μl)
Text: Originally, the objective of this study was to determine the effects of treatment with three different pharmaceutical formulations of rhamnolipids within the context of an allergic rhinitis study in mice. However, the weight loss effects due to treatment with the various rhamnolipids were unexpectedly discovered during the course of this study. Materials Animal: Balb/C mice were used in this study and were eight weeks old. The treatment groups and the placebo group were each composed of 10 mice. Allergenization was performed in a similar fashion as reported in the literature. Sensitization Materials: The following were used to sensitize and induce allergic rhinitis in the mice:
Mice were sensitized once-weekly with four intraperitoneal injections of OVA/Alum (Day 0, […], 14 and 21). From Day 22-39, anesthetized mice were administered once-daily doses of the OVA stock solution instilled in each nostril.
On Day 37, mice were assigned to one of three rhamnolipid treatment groups or a placebo group. The rhamnolipid treatment groups received a rhamnolipid mixture containing RPI-100, RPI-200, or RPI-300. […] Body weights of the mice were measured and recorded on Days 35, 37, and 39 as part of a standard animal safety observation protocol. […]

CCCCCCCC(CC(=O)O)OC(=O)CC(CCCCCCC)O[C@@H]1O[C@@H](C)[C@H](O)[C@@H](O)[C@H]1O (stereo partly drawn) [RPI-200, L-rhamnosyl-β-hydroxydecanoyl-β-hydrocydecanoate]
body weight, 2 days post-treatment (Day 39) compared with 2 days pre-treatment (Day 35), versus placebo: statistically significant reduction in body weight
